ChEMBL document CHEMBL1151951, “Brartemicin, an inhibitor of tumor cell invasion from the actinomycete Nonomuraea sp” (J Nat Prod, 2009)
The source made the active and inactive calls. The calls are words filed in the database; no cut-off is given here.

What was measured:
[1] = Antiinvasive activity against mouse 26-L5 cells at 1 ug/ml; assay type: functional
Mus musculus [2] = species on record: Mus musculus; test: Cytotoxicity against mouse 26-L5 cells at 10 ug/ml; assay type: functional, cell-based
[3] = Antiinvasive activity against mouse 26-L5 cells; assay type: functional, cell-based
Mus musculus [4] = species on record: Mus musculus; test: Antiinvasive activity against mouse 26-L5 cells assessed as inhibition of cell migration; assay type: functional, cell-based

SMILES	Activity [1] [%]	Activity (Mus musculus [2])	IC50 [3] [nM]	Activity (Mus musculus [4])
O=C(OC[C@H]1O[C@H](O[C@H]2O[C@H](COC(=O)c3cccc(O)c3O)[C@@H](O)[C@H](O)[C@H]2O)[C@H](O)[C@@H](O)[C@@H]1O)c1cccc(O)c1O	40			
O=C(OC[C@H]1O[C@H](O[C@H]2O[C@H](COC(=O)c3ccccc3O)[C@@H](O)[C@H](O)[C@H]2O)[C@H](O)[C@@H](O)[C@@H]1O)c1ccccc1O	35			
O=C(OC[C@H]1O[C@H](O[C@H]2O[C@H](COC(=O)c3ccccc3)[C@@H](O)[C@H](O)[C@H]2O)[C@H](O)[C@@H](O)[C@@H]1O)c1ccccc1	51			
Cc1cc(O)cc(O)c1C(=O)OC[C@H]1O[C@H](O[C@H]2O[C@H](COC(=O)c3c(C)cc(O)cc3O)[C@@H](O)[C@H](O)[C@H]2O)[C@H](O)[C@@H](O)[C@@H]1O [BRARTEMICIN]	59	Not toxic	390	inactive
